Measurements from patent US11478440B2, “Combination of Elafibranor or derivatives thereof with an anti-NASH, anti-fibrotic or anti-cholestatic agent” (GENFIT, priority 2017, dated 2022).

System: mice with NASH (CDFF-fed mice)
Test: Mouse fibrosing-NASH model (CDFF diet, 8 weeks)
Type: in vivo, C57Bl/6J mice
Details: elafibranor 3 mg/kg/day
Protocol: The preventive effects of the combinations of elafibranor with selonsertib, GKT-831 or GS-0976 were assessed in mice fed a choline-deficient, […] diet (CDAA) supplemented with 2% cholesterol, 30% milk fat diet and high fructose corn syrup 55 (55% fructose/45% glucose for a final concentration of 42 g/L) in drinking water (Mells et al J Nutr Biochem 2015) (CDFF diet). 5-6 weeks old male C57Bl/6J mice were fed a control (CSAA) diet (n=4), CDFF (n=12), or CDFF supplemented with elafibranor (1 or 3 mg/kg/day), selonsertib (30 mg/kg/day), GKT-831 ([…]) alone or in combination (n=8 per group) for 8 weeks.
The body weight, the food and water intake were monitored twice per week. On the last day of treatment, plasma samples were obtained from retro-orbital blood sampling and mice were sacrificed after a 6 h-fasting period. The liver was rapidly excised for biochemical and histological analyses. All animal procedures were performed according to standard protocols and in accordance with the standard recommendations for the proper care and use of laboratory animals.
The liver slices were fixed in a formalin 4% solution. Then, the liver pieces were washed 30 minutes in PBS, and dehydrated in ethanol solutions (successive baths at 70, 80, 95 and 100% ethanol). The liver pieces were incubated in three different baths of Xylene (Honeywell cat #534056), followed by two baths in liquid paraffin (59° C.). Liver pieces were then put into racks that were gently filled with HISTOWAX to completely cover the tissue.
Liver sections were deparaffinized, rehydrated and incubated for 3 minutes in Mayer's Hematoxylin (Microm, cat #F/C0303). Then, the liver sections were rinsed in water and incubated 1 minute in a Eosin Y 0.5% alcoholic (VWR, cat #1.02439.0500) and Erythrosin 0.5% solution (VWR, cat #1.15936.0010), and rinsed in with ethanol. Sections were then incubated for 2 minutes in Safranin, and were eventually dehydrated and mounted using the CV Mount medium (Leica, cat #046430011).
Liver sections were deparaffinized, rehydrated and incubated for 15 minutes in a solution of Fast Green FCF 0.1% (Sigma-Aldrich, cat #F7258) before rinsing in a bath of 0.5% acetic acid (Panreac, cat #131008.1611). Then, the liver sections were rinsed in water and incubated 30 minutes in a solution of 0.1% sirius red (Direct Red 80, Fluka cat #43665) in saturated aqueous picric acid (Sigma-Aldrich cat #P6744). Sections were then dehydrated, and mounted using the CV Mount medium (Leica, cat #14046430011).
A technician blinded to the source of each liver specimen performed histological examinations. Virtual slides were generated using the Pannoramic 250 scanner from 3D Histech. For each animal, a score summarizing the main histological lesions of NASH was attributed according to the NASH Clinical Research Network (Kleiner 2005, Brunt 1999). Briefly, steatosis, lobular inflammation and hepatocyte ballooning were scored. The NAFLD Activity Score (NAS) was established for each individual as the unweighted sum of the steatosis (0-3), lobular inflammation (0-3) and the ballooning (0-2) injury grading.
Using Quant Center software (3D Histech, including Pattern Quant and Histo Quant modules), collagen-stained areas were quantified. Briefly, Pattern Quant was used to detect the tissue and measure its surface. Then, Histo Quant was used to detect the stained collagen content and measure its surface, based on a color threshold method. The fibrosis area was then expressed as the percentage of the collagen surface to the whole tissue per animal.
The hepatic collagen content was determined using the appropriate QuickZyme kit (Total collagen assay, cat #QZB-totcol2). The assay is based on the detection of hydroxyproline, which is a non-proteinogenic amino acid mainly found in the triple helix of collagen. […]

Substance: 1-[4-methylthiophenyl]-3-[3,5-dimethyl-4-carboxydimethylmethyloxyphenyl]prop-2-en-1-one [Elafibranor]
- NASH histology (steatosis, hepatic lobular inflammation, NAFLD activity score): improves NASH histology
- hepatic expression of genes related to inflammation, tissue remodeling and fibrogenesis (alone or with selonsertib 30 mg/kg/day): decreases
- hepatic fibrosis (histology, hepatic collagen content, PIIINP and TIMP-1) (selonsertib 30 mg/kg/day, alone or combined): marked reduction of hepatic fibrosis
